Where two headings read alike, the source gives them in different places.
Key:
MERTK = MERTK (Homo sapiens, UniProt Q12866); settings: 0.1 µM; binder
SRPK3 = SRPK3 (Homo sapiens, UniProt Q9UPE1); settings: 0.1 µM; binder
EPHB6 = EPHB6 (Homo sapiens, UniProt O15197); settings: 0.1 µM; binder
LKB1 = LKB1 (Homo sapiens, UniProt Q15831); settings: 0.1 µM; binder
DMPK = DMPK (Homo sapiens, UniProt Q09013); settings: 0.1 µM; binder
SGK2 = SGK2 (Homo sapiens, UniProt Q9HBY8); settings: 0.1 µM; binder
JNK3 = JNK3 (Homo sapiens, UniProt P53779); settings: 0.1 µM; binder
Sequence of JNK3 (P53779 whole entry): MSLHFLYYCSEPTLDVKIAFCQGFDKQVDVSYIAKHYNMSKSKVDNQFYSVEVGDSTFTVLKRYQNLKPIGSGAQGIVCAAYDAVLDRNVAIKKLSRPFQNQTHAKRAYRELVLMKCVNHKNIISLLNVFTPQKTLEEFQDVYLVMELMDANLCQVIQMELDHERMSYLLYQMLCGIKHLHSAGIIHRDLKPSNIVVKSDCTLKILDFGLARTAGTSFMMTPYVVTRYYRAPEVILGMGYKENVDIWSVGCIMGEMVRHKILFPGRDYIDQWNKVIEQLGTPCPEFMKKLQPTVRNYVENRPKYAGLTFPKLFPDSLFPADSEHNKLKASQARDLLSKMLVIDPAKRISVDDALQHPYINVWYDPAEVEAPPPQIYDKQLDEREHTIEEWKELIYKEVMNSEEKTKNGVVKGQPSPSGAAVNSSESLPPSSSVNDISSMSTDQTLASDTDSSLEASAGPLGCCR

DAPK3 = DAPK3 (Homo sapiens, UniProt O43293); settings: 0.1 µM; binder
PIK3CG = PIK3CG (Homo sapiens, UniProt P48736); settings: 0.1 µM; binder
AURKA = AURKA (Homo sapiens, UniProt O14965); settings: 0.1 µM; binder
IGF1R = IGF1R (Homo sapiens, UniProt P08069); settings: 0.1 µM; binder
SLK = SLK (Homo sapiens, UniProt Q9H2G2); settings: 0.1 µM; binder
KIT(D816V) = KIT(D816V) (Homo sapiens, UniProt P10721, D816V); settings: 0.1 µM; binder
KIT(L576P) = KIT(L576P) (Homo sapiens, UniProt P10721, L576P); settings: 0.1 µM; binder
MET(M1250T) = MET(M1250T) (Homo sapiens, UniProt P08581, M1250T); settings: 0.1 µM; binder
ABL2 = ABL2 (Homo sapiens, UniProt P42684); settings: 0.1 µM; binder
MAP4K3 = MAP4K3 (Homo sapiens, UniProt Q8IVH8); settings: 0.1 µM; binder
MEK2 = MEK2 (Homo sapiens, UniProt P36507); settings: 0.1 µM; binder
ADCK4 = ADCK4 (Homo sapiens, UniProt Q96D53); settings: 0.1 µM; binder
Sequence of ADCK4 (Q96D53 whole entry): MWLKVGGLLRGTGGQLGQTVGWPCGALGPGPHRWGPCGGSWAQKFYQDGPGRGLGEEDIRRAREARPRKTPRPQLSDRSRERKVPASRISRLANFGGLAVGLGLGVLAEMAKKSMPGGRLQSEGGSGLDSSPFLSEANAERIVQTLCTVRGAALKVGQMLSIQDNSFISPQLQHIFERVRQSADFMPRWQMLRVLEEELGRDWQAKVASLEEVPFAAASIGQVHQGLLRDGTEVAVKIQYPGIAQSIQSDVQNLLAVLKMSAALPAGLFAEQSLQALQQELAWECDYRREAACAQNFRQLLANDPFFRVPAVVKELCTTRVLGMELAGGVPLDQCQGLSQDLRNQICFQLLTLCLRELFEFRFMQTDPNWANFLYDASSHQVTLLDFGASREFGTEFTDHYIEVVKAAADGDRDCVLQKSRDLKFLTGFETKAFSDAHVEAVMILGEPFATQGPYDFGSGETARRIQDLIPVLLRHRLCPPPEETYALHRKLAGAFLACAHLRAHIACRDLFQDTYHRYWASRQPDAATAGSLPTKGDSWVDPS

AKT3 = AKT3 (Homo sapiens, UniProt Q9Y243); settings: 0.1 µM; binder
FLT3(R834Q) = FLT3(R834Q) (Homo sapiens, UniProt P36888, R834Q); settings: 0.1 µM; binder
MATK = MATK (Homo sapiens, UniProt P42679); settings: 0.1 µM; binder
Sequence of MATK (P42679 whole entry): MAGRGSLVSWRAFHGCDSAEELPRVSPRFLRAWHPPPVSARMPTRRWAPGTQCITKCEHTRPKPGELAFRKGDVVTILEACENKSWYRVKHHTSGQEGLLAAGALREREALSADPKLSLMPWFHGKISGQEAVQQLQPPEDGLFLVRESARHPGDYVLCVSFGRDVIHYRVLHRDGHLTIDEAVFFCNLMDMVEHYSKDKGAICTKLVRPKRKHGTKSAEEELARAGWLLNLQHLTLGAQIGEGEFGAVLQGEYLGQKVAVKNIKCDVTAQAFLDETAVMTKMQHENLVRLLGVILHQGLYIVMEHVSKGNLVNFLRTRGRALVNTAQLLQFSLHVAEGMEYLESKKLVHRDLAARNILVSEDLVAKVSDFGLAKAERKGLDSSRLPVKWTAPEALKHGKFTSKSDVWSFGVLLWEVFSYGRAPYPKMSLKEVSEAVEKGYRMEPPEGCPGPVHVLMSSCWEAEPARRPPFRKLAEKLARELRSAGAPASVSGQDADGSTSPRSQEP

MUSK = MUSK (Homo sapiens, UniProt O15146); settings: 0.1 µM; binder
MST2 = MST2 (Homo sapiens, UniProt Q13188); settings: 0.1 µM; binder
Sequence of MST2 (Q13188 whole entry): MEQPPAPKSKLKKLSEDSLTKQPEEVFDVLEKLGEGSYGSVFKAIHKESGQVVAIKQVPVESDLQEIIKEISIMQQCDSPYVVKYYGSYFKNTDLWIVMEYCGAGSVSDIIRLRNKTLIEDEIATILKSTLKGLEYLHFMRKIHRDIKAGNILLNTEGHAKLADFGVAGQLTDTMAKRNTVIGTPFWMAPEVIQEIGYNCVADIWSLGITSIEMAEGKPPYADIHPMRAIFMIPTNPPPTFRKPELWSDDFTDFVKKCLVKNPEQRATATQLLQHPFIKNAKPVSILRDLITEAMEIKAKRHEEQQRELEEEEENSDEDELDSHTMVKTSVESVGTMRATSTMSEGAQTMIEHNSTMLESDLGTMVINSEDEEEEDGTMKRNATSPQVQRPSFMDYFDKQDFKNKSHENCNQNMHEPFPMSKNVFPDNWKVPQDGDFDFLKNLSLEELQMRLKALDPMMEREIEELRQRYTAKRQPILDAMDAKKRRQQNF

EIF2AK1 = EIF2AK1 (Homo sapiens, UniProt Q9BQI3); settings: 0.1 µM; binder
DMPK2 = DMPK2 (Homo sapiens, UniProt Q6DT37); settings: 0.1 µM; binder
RIPK2 = RIPK2 (Homo sapiens, UniProt O43353); settings: 0.1 µM; binder
CDKL1 = CDKL1 (Homo sapiens, UniProt Q00532); settings: 0.1 µM; binder
Sequence of CDKL1 (Q00532 whole entry): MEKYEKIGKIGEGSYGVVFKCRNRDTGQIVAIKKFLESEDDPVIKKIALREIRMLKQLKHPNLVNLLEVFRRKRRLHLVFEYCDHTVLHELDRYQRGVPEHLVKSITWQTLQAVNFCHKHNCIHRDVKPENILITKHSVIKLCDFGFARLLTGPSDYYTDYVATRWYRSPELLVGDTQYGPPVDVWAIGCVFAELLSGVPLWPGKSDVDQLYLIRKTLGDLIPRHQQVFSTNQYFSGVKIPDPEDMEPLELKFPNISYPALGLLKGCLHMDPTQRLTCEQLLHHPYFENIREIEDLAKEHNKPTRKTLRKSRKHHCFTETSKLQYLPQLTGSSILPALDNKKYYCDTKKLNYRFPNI

CAMK2B = CAMK2B (Homo sapiens, UniProt Q13554); settings: 0.1 µM; binder
Sequence of CAMK2B (Q13554 whole entry): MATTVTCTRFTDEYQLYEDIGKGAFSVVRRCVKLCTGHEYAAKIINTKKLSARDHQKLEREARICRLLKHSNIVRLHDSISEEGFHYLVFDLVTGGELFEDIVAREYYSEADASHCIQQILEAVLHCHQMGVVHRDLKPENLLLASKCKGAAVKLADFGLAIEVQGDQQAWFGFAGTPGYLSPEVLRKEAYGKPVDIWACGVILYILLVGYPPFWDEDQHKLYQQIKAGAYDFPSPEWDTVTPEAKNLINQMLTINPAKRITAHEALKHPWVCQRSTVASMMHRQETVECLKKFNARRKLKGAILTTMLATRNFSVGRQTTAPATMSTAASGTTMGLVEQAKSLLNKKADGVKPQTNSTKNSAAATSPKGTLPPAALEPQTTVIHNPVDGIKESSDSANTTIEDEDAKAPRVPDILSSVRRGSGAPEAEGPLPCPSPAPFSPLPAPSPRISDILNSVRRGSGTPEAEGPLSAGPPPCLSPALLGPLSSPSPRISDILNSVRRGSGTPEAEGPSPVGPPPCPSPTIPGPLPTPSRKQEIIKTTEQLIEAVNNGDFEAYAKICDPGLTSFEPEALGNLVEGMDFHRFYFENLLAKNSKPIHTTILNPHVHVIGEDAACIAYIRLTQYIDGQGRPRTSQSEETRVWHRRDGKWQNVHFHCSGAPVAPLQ

AURKC = AURKC (Homo sapiens, UniProt Q9UQB9); settings: 0.1 µM; binder
CSF1R = CSF1R (Homo sapiens, UniProt P07333); settings: 0.1 µM, binder
Sequence of CSF1R (P07333 whole entry): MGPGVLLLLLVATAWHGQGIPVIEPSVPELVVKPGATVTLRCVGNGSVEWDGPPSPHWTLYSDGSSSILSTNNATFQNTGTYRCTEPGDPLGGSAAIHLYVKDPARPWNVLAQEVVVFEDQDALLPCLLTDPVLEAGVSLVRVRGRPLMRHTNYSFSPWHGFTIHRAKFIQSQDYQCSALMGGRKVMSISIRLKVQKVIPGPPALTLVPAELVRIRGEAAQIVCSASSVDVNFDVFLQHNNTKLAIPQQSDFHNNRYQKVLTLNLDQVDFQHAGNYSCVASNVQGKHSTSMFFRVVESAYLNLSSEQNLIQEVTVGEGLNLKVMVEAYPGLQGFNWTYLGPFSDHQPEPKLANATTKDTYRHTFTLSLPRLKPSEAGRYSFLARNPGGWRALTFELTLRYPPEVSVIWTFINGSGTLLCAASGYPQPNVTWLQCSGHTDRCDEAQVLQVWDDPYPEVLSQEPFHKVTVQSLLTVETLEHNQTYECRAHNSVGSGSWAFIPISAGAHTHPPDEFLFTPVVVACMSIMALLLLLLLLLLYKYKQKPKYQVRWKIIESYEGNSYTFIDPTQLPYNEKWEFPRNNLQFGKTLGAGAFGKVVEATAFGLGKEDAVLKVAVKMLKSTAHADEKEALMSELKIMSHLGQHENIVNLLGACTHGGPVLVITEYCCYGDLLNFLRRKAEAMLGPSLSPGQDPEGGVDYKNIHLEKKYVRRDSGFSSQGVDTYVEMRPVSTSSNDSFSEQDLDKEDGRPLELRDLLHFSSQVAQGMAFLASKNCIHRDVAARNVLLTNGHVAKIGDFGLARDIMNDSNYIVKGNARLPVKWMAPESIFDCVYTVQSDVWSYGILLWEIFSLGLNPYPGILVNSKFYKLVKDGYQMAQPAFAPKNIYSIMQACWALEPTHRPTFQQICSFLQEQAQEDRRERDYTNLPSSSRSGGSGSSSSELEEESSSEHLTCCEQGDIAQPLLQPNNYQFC

Sequence of DMPK (Q09013 whole entry): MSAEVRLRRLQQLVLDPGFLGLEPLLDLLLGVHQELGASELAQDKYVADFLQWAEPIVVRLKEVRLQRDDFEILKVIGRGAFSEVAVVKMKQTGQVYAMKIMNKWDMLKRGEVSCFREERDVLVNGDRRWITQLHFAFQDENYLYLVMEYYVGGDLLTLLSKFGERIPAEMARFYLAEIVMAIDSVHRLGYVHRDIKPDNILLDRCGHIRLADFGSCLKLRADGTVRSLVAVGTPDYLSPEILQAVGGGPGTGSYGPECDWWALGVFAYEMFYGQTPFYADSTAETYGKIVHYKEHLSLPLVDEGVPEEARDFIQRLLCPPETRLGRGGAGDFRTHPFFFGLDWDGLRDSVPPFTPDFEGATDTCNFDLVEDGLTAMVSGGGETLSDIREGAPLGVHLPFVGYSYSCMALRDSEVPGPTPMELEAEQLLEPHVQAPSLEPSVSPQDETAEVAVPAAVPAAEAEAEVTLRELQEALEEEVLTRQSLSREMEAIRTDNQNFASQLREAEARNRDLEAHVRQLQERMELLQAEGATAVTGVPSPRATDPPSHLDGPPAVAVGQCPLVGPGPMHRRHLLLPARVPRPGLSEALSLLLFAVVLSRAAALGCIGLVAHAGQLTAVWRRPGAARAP
Sequence of SGK2 (Q9HBY8 whole entry): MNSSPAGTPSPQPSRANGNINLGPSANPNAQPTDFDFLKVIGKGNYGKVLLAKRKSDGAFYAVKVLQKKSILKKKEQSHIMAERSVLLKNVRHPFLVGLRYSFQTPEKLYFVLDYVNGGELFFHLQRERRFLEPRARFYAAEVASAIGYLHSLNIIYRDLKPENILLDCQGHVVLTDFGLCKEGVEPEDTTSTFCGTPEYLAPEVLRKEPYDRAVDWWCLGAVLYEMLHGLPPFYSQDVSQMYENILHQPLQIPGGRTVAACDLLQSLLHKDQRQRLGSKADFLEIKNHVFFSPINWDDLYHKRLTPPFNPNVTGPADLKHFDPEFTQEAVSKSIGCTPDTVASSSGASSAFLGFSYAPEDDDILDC

SMILES: CNc1ncc2cc(-c3ccc(-c4cccc(C)n4)cc3Cl)c(=O)n(C[C@H]3OC[C@H](N)CO3)c2n1 [compound 6, G-5555]
- Percent Control (MERTK): 95%
- Percent Control (SRPK3): 100%
- Percent Control (EPHB6): 61%
- Percent Control (LKB1): 100%
- Percent Control (DMPK): 100%
- Percent Control (SGK2): 100%
- Percent Control (JNK3): 92%
- Percent Control (DAPK3): 100%
- Percent Control (PIK3CG): 87%
- Percent Control (AURKA): 98%
- Percent Control (IGF1R): 100%
- Percent Control (SLK): 89%
- Percent Control (KIT(D816V)): 100%
- Percent Control (KIT(L576P)): 100%
- Percent Control (MET(M1250T)): 76%
- Percent Control (ABL2): 100%
- Percent Control (MAP4K3): 85%
- Percent Control (MEK2): 33%
- Percent Control (ADCK4): 99%
- Percent Control (AKT3): 95%
- Percent Control (FLT3(R834Q)): 96%
- Percent Control (MATK): 100%
- Percent Control (MUSK): 100%
- Percent Control (MST2): 64%
- Percent Control (EIF2AK1): 97%
- Percent Control (DMPK2): 89%
- Percent Control (RIPK2): 100%
- Percent Control (CDKL1): 100%
- Percent Control (CAMK2B): 100%
- Percent Control (AURKC): 37%
- Percent Control (CSF1R): 89%
- Percent Control (CSF1R; autoinhibited): 97%

Reference: publication doi:10.1101/2021.04.08.439011v1 (biorxiv, 2021)
